Test results reported in paper PMC7828231, “Delphinidin Increases the Sensitivity of Ovarian Cancer Cell Lines to 3-bromopyruvate” (International Journal of Molecular Sciences, 2021).
Like-named read-outs stand apart in the source and are kept apart here.

Assays:
Assay type in all cases: cell-based, human
[1] = test system: SKOV3 cells; assay: Mitochondrial membrane potential (JC-1); settings: 25-µM D, 40 µM 3-BP, 24 h
Description: (§1) Changes of mitochondrial membrane potential was evaluated using 5,5′,6,6′-tetrachloro-1,1′,3,3′-tetraethyl-imidacarbocyanine iodide, 5,5′,6,6′-tetrachloro-1,1′,3,3′-tetraethylbenzimidazolocarbocyanine iodide (JC-1) with a Mitochondrial Membrane Potential Assay Kit.
(§2) The cells were seeded into black plates and treated as mentioned before. After 24h incubation with the studied compounds, the medium was discharged and replaced with 100x diluted JC-1 reagent in complete culture medium and incubated for 30 min in a CO2 incubator. Next, the plate was centrifuged at 4000 rpm for 5 min and afterwards the reagent was aspirated, and cells were washed with 150 μL/well Cell-Based Assay Buffer and centrifuged once more. After removing the supernatant, 100 μL/well of the new buffer was added. Fluorescence was measured at 540/570 nm (red fluorescence) and 485/535 nm (green fluorescence). The results were presented as a ratio of green to red fluorescence intensity ratio.

[2] = test system: PEO1 cells; assay: Mitochondrial membrane potential (JC-1); settings: 25-µM D, 20 µM 3-BP, 24 h
Description: as §1, §2

[3] = test system: PEO1 cells; assay: Apoptosis and necrosis assay (RealTime-Glo Annexin V); settings: after 24 h
Description: The levels of apoptosis and necrosis were assayed using the RealTime-Glo™ Annexin V Apoptosis and Necrosis Assay. Cells were seeded into a white 96-well plate with optical bottom, cultured and treated adequately, as stated above. After 24 h, 100 μL of the freshly prepared reagent was added to each well according to the manufacturer’s protocols. The fluorescence and luminescence were measured according to the protocols.

[4] = test system: SKOV3 cells; assay: Mitochondrial mass (NAO); settings: 25-µM D, 40 µM 3-BP, 24 h
Description: (§3) Cells were seeded at the density of 2 × 10^5 cells/well onto a 24-well plate and cultured as stated before. Following 24-hour exposure to the studied compounds, the cells were trypsinized, counted and transferred to separate Eppendorf tubes, and then centrifuged for 6 minutes at 3000 rpm. Subsequently the supernatant was discharged and the cells were washed with 1 mL of PBS and centrifuged again. Afterwards, 1 mL of 10 μM NAO solution in PBS was added into the samples, and incubated for 10 min in a CO2 incubator at 37 °C. Next, the cells were centrifuged and the pellet was washed with PBS, and resuspended in 300 μL of PBS. Each sample was transferred into a 96-well black plate (100 μL/well; 3 repetitions). Fluorescence was measured at 435/535 nm. The results were determined in relation to the cell count.

[5] = test system: PEO1 cells; assay: Mitochondrial mass (NAO); settings: 25-µM D, 20 µM 3-BP, 24 h
Description: as §3

[6] = test system: SKOV3 cells; assay: Atto-488-phalloidin and Mitotracker labeling (confocal); settings: 25-µM D, 40-µM 3-BP, 24 h
Description: (§4) Cells were seeded on an 8-well chamber slide (Lab-Tek™ II Chamber Slide™ System cat. no. 154534, Thermo Scientific, Waltham, MA, USA) at a density of 2.5 × 10^4 cells/chamber and allowed to attach at 37 °C. Subsequently, PEO1 and SKOV3 cells were treated with 25-µM D, 20-µM or 40-µM 3-BP (depending on the cell line) or both substances together for 24 h. Following the treatment, the medium was removed and replaced with 200-nM solution of Mitotracker Deep Red FM (i) (cat. no. M22426, Thermo Scientific, Waltham, MA, USA) in PBS and incubated for 30 min; in a CO2 incubator, the cells were washed with PBS (300 μL/well) and fixed with 200-μL/well 3.7% formaldehyde for 10 min. Then, the cells were washed with PBS (200 μL/well), permeabilized with 0.1% Triton X-100 solution (200 μL/well) for 10 min and washed with PBS (700 μL/well).
(§5) Following the treatment, the medium was removed and replaced with 150 μL/well of phalloidin working solution (ii) (prepared according to the manufacturer’s protocols) and incubated for 60 min.
(§6) After staining i or ii, the fixed cells were washed again, 600-nM solution of DAPI in PBS was added (200 µL/well), the cells were incubated at room temperature for 60 minutes and their micrographs were taken using a Zeiss LSM 710 inverted confocal microscope (Oberkochen, Germany). The ratio of fluorescence intensity of the mitochondria and cytoskeleton (expressed as a mean gray value) was calculated using ImageJ software. The corrected total cell fluorescence (CTFT) per cell was calculated according to https://theolb.readthedocs.io/en/latest/imaging/measuring-cell-fluorescence-using-imagej.html.

[7] = test system: PEO1 cells; assay: as above; settings: 24 h
Description: as §4, §5, §6

[8] = test system: MRC-5 fibroblasts; assay: Cytotoxicity, Neutral Red survival assay
Description: (§7) SKOV3 and PEO1 cells were seeded in a clear 96-well plate at a density of 1 × 10^4 cells/well in 100-µL culture medium. MRC-5 cells were seeded at a density of 7.5 × 10^3/well and allowed to attach for 24 h at 37 °C. After incubation, the cells were treated with delphinidin chloride in a concentration range of 10–100 µM and 3-BP at concentrations between 5–25 µM for PEO1 and 10–50 µM for MRC-5 and SKOV3. Nontreated cells were used as a control. Stock solutions of tested substances were prepared in DMSO and their working solutions in culture media. The DMSO concentration was adjusted to 0.2% in all samples, which had no significant effect on the treated cells. After 24-h exposure time, the medium was removed and replaced with 100 µL of […] neutral red solution, and the cells were incubated at 37 °C for 1 h. Then, the cells were washed with PBS; fixed with 100 µL/well of 50% ethanol, 49% H2O and 1% glacial acetic acid and shaken (700 rpm) at room temperature for 20 min. Absorbance was measured at 540 nm against 620 nm.

[9] = test system: SKOV3 cells; assay: Cytotoxicity, Neutral Red survival assay; settings: read-out: IC50 of cell survival
Description: as §7

[10] = test system: PEO1 cells; assay: Cytotoxicity, Neutral Red survival assay; settings: read-out: IC50 of cell survival
Description: as §7

| Structure (SMILES) | mitochondrial potential (JC-1 fluorescence ratio) [1] | mitochondrial potential (JC-1 fluorescence ratio) [2] | induction of necrosis [3] | mitochondrial mass [4] | mitochondrial mass [5] | decrease in the intensity of staining with Atto-488-phalloidin with respect to the control [6] | decrease in the intensity of staining with Mitotracker Red with respect to the control [6] | decrease in the intensity of staining with Atto-488-phalloidin with respect to the control ([7]; 25-µM D, 20-µM 3-BP) | increase in the intensity of staining with Mitotracker Red with respect to the control ([7]; 25-µM D) | survival / viability of MRC-5 fibroblasts ([8]; up to 100 µM) | IC50 ([9]; Homo sapiens, SK-OV-3, 24 h, SKOV3, 24-h exposure, Neutral Red, ND = no reduction of survival in the concentration range studied) | IC50 ([9]; SKOV3, 24-h exposure, Neutral Red, ND = no reduction of survival in the concentration range studied) | IC50 ([10]; Homo sapiens, PEO1, 24 h, PEO1, 24-h exposure, Neutral Red, ND = no reduction of survival in the concentration range studied) | IC50 ([10]; PEO1, 24-h exposure, Neutral Red, ND = no reduction of survival in the concentration range studied) | increase in the intensity of staining with Atto-488-phalloidin with respect to the control ([7]; 20-µM 3-BP) | decrease in the intensity of staining with Mitotracker Red with respect to the control ([7]; 25-µM D, 20-µM 3-BP) | survival of MRC-5 fibroblasts ([8]; up to a concentration of 50 µM) | IC50 ([9]; Homo sapiens, SK-OV-3, 24 h) | IC50 ([10]; Homo sapiens, PEO1, 24 h) |
| --- | --- | --- | --- | --- | --- | --- | --- | --- | --- | --- | --- | --- | --- | --- | --- | --- | --- | --- | --- |
| Oc1cc(O)c2cc(O)c(-c3cc(O)c(O)c(O)c3)[o+]c2c1 [Delphinidin chloride, 3,3′,4′,5,5′,7-hexahydroxyflavylium] | increased | decreased | considerable induction of necrosis | decreased | increased | ~67% | ~94% | ~17% | about 7% | did not affect | < 100 µM | 57.5 µM | < 100 µM | 71.5 µM | – | – | – | – | – |
| O=C(O)C(=O)CBr [3-BP, 3-bromopyruvic acid] | increased | decreased | considerable induction of necrosis | increased | increased | about 33% | about 39% | – | – | – | – | – | – | – | ~51% | about 7% | not compromised | 40.5 µM | 18.7 µM |
